Experimental data: the NIST ThermoML archive (doi:10.1021/acs.jced.9b00436)
Values joined by “and” are separate entries in the source; they are usually repeats but may differ in a detail not shown here. Identical values can stand only once. Numbers after ± are expanded uncertainties.

Experiments:
[1] = an = ratio of the nth substance listed; conditions: 100 kPa, Liquid; for viscosity: Falling or rolling sphere viscometry; for speed of sound: Frequency=5 MHz, Single path-length method; for mass density: Vibrating tube method
[2] = xn = mol fraction of the nth substance listed; conditions: 308 K; 100 kPa; Liquid; Frequency=5 MHz; Single path-length method; x2 = 0.333
[3] = 100 kPa, Liquid, Frequency=5 MHz, Single path-length method

CCCCCCCC[N+](C)(CCCCCCCC)CCCCCCCC.[Br-] [methyltrioctylammonium bromide] + CCCCCCCCCC(=O)O
[1], a2 = 2
Conditions | mass density [kg/m3] | speed of sound [m/s] | viscosity [mPa·s]
293 K | 945.4 ± 19 | 1406 ± 28 | 806 ± 330
298 K | 942.2 ± 19 | 1393 ± 28 | 572.6 ± 230
303 K | 939.9 ± 19 | 1375 ± 28 | 411.4 ± 170
308 K | 935.2 ± 19 | 1357 ± 27 | 305.2 ± 120
313 K | 931.9 ± 19 | 1341 ± 27 | 226.2 ± 91
318 K | 928.3 ± 19 | 1326 ± 27 | 171.5 ± 69
323 K | 925.3 ± 18 | 1312 ± 26 | 132.4 ± 53
328 K | 923.1 ± 18 | 1297 ± 26 | 104.5 ± 42
333 K | 920.8 ± 18 | 1283 ± 26 | 83.7 ± 34

O=C(O)CC(=O)O [propanedioic acid] + C[N+](C)(C)CCO.[Cl-]
[1]
Conditions | mass density, a1 = 1 [kg/m3] | speed of sound, a1 = 2 [m/s] | viscosity, a1 = 2 [mPa·s]
293 K | 1185.1 ± 24 | – | –
298 K | 1182.1 ± 24 | – | –
303 K | 1178.6 ± 24 | 1876 ± 38 | 1128.6 ± 460
308 K | 1175.6 ± 24 | 1863 ± 37 | 812.9 ± 330
313 K | 1172.3 ± 24 | 1851 ± 37 | 597.3 ± 240
318 K | 1169.1 ± 23 | 1838 ± 37 | 446.1 ± 180
323 K | 1166 ± 23 | 1825 ± 37 | 342.3 ± 140
328 K | 1162.7 ± 23 | 1812 ± 36 | –
333 K | 1160.3 ± 23 | 1799 ± 36 | –

CCCCCCCC[N+](CCCCCCCC)(CCCCCCCC)CCCCCCCC.[Br-] [tetraoctylammonium bromide] + CCCCCCCCCC(=O)O
[1], a2 = 2
Conditions | mass density [kg/m3] | speed of sound [m/s] | viscosity [mPa·s]
293 K | 933.7 ± 19 | 1416 ± 28 | 908.9 ± 370
298 K | 930.6 ± 19 | 1402 ± 28 | 648 ± 260
303 K | 928.4 ± 19 | 1382 ± 28 | 472 ± 190
308 K | 923.7 ± 18 | 1365 ± 27 | 350 ± 140
313 K | 920.5 ± 18 | 1347 ± 27 | 264.3 ± 110
318 K | 916.9 ± 18 | 1331 ± 27 | 201.1 ± 81
323 K | 913.9 ± 18 | 1317 ± 26 | 156.9 ± 63
328 K | 911.8 ± 18 | 1301 ± 26 | 123.4 ± 50
333 K | 909.5 ± 18 | 1287 ± 26 | 98.4 ± 39

NC(N)=O [urea] + C[N+](C)(C)CCO.[Cl-]
[1], a1 = 2
Conditions | mass density [kg/m3] | speed of sound | viscosity [mPa·s]
293 K | 1200.1 ± 24 | 2045 ± 41 m/s | 1372 ± 570
298 K | 1198.1 ± 24 | 2035 ± 41 m/s | 985.1 ± 400
303 K | 1194.5 ± 24 | 2027 ± 41 m/s | 527.3 ± 210
308 K | 1191.7 ± 24 | 2020 ± 40 m/s and 2018 ± 40 m/s | 397.2 ± 160
313 K | 1188.7 ± 24 | 2009 ± 40 m/s | 238.1 ± 96
318 K | 1185.5 ± 24 | 2002 ± 40 m/s | 181.6 ± 73
323 K | 1183.1 ± 24 | 1992 ± 40 m/s | 119.8 ± 48
328 K | 1179.2 ± 24 | 1983 ± 40 m/s | 98.2 ± 39
333 K | 1177.3 ± 24 | 1976 ± 40 m/s | 68.6 ± 28

Conditions | speed of sound [m/s]
[2] | 2016 ± 40

O [water]
[3]
Conditions | speed of sound [m/s]
298 K | 1501 ± 30
303 K | 1511.5 ± 30
313 K | 1527.5 ± 31
318 K | 1535 ± 31
323 K | 1542 ± 31
328 K | 1547 ± 31
333 K | 1550 ± 31
